The structures appear in SMILES notation. Where only a bound is given, the exact number is not on record here.

The test system of series [1] is maximal electroshock seizure. The series can be described thus: Maximal Electroshock Seizure (MES) rat model. The format is in vivo. The conditions noted are these: po, 0.5 hour. Here is the method:
Male, Sprague-Dawley rats and CD-1 mice were used for all studies. All animals were allowed ad-lib access to food and water except during experiment. Animals were housed within an animal vivarium maintained under a 12 h light:dark cycle (lights on: 07:00 h), and all experiments were conducted in the animals light phase. For all experiments, animals were habituated to the vivarium for a minimum of 72 h before experimentation. The experimental procedures used in the present investigation were conducted under the Association for Assessment and Accreditation of Laboratory Animal Care (AAALAC) and the Canadian Council on Animal Care (CCAC) guidelines. All compounds were sonicated in 5% Tween 80® in saline or methylcellulose 0.5% (wgt/vol), using MC and sterile water and injected in a dose volume of 5 ml/kg or 10 ml/kg (rat), and 10 ml/kg (mouse). Drugs were administered by either the oral, intraperitoneal or intravenous route. Male Sprague-Dawley rats of body weight 80-100 g were used for these studies. Each experiment was conducted over 3 consecutive days. On day 1 and 2, each rat received a single electrical stimulus (150 mA, 0.2 s duration, 60 Hz) via corneal electrodes moistened with saline (Shock stimulator type 221: Harvard apparatus). […] Typically this reflected approximately 70-90% of the initial group. […] On the test day following a defined drug pretreatment period, rats received a maximal electroshock (150 mA, 0.2 s duration, 60 Hz) via corneal electrodes. Protection was defined as absence of a full tonic seizure within 10 s of stimulus delivery. Twenty minutes before the MES procedure, the animals were tested on a fixed speed rotorod (best score from 3 trials at 8 r.p.m, trial duration=60 s) to give an early assessment of drug effect on gross motor function.
Background: The maximal electroshock test induces tonic seizures with an electrical stimulus.

Another series relates to gross motor function. Briefly: Rotorod, mouse (Table 8). The conditions noted are these: in vivo, po, Table 8, mouse.
Series [2] relates to fully kindled (stage 5) seizures, hippocampal kindled rat. The series can be described thus: Hippocampal kindled rat model (focal seizures). It counts as in vivo. To be noted: for suppression of fully kindled (stage 5) seizures compared to vehicle controls: <100 mg/kg i.p. The source says:
Hippocampal Kindled Rat Test is designed to quantify the anti-convulsant effects of a test compound in the kindled rat model. Rats treated by i.p. injection.
The Kindled Rat is a model of temporal lobe epilepsy, which is the most common and drug-resistant type of adult focal epilepsy (Morimoto et al., 2004). […] This acquired hyper-responsiveness is called kindling and results not only in increased seizure responses but also in an elongation of the after-discharge duration seen on an EEC recording.
Electrodes are implanted into the hippocampus of anesthetized rats, which are then allowed to recover for one week. Following the rapid kindling protocol (Lothman and Williamson, Brain Res 1994, 649:71-84), the rats are stimulated with 200 jiA for 10 s, 50 Hz, every 30 minutes for six hours on alternate days until they are fully kindled (4-5 stimulus days). After one week of rest, the animals are given the same electrical stimulus which serves as a baseline. The animals are pretreated with the test compound (generally via i.p. injection) and then tested at various intervals. At each time point, the behavioral seizure score (BSS) and after-discharge duration (ADD) is recorded. The BSS's are scored according to the following criteria (Racine, Electroencephalogr Clin Neurophysiol 1972, 32:281-94): Stage 1—mouth and facial clonus; Stage 2—stage 1 plus head nodding; Stage 3—stage 2 plus forelimb clonus; Stage 4—stage 3 plus rearing; and Stage 5—stage 4 plus repeated rearing and falling.
The after discharge threshold (ADT) can also be measured in the kindled rat. The ADT is defined as the lowest current at which an after discharge of at least 4 s is elicited. […] The initial stimulation is conducted at an intensity of 20 uA with 10 uA increments every 1-2 min until an after discharge is elicited. Fifteen minutes after the pre-drug threshold determination, a single dose of the test substance is administered to two animals in a volume of 0.04 ml/10 g body weight. In this way the animals serves as its own control. The individual rat ADT is then determined at varying times (i.e., 0.25, 1, 2, and 4 hr) after drug administration.
Ability of a compound to block behavioral seizures and/or decrease the afterdischarge duration (ADD) in a hippocampal kindled rat model. The hippocampal kindled rat provides an experimental model of focal seizures that become secondarily generalized. This rat model is useful for not only identifying compounds effective against partial seizures, but also allows for the investigation of complex brain networks that may contribute to seizure spread and generalization from a focus. Moreover, of the various electrical kindling paradigms described in the literature, the hippocampal kindling model offers several distinct advantages for the routine screening and evaluation of potential anticonvulsant compounds. First, this model provides a temporal framework for assessing drug efficacy in a focal seizure model. Specifically, the refractory period of individual animals is sufficiently short to permit repeated stimulations over a short time span. Second, this kindled rat model can be employed to assess the ability of an investigational compound to block fully kindled seizures evoked by an electrical stimulus. Finally, the hippocampal kindled rat model can also be used to assess the ability of an investigational compound to elevate threshold to focal firing modulation by an investigational drug. Therefore, compounds with a subtle effect on focal seizure activity in the kindled rat are not likely to be overlooked in the threshold test, thereby making the hippocampal kindled rat a useful screen at the ETSP.
Animals are first surgically prepared for kindling acquisition. Adult, male Sprague-Dawley rats (275-300 g) are surgically implanted with bipolar electrodes. Briefly, a bipolar electrode is stereoaxically implanted into the ventral hippocampus (AP −3.6, ML −4.9, VD −5.0 from dura, incisor bar +5.0) under ketamine-xylazine anesthesia. […]

The test system of a further series is 6 Hz psychomotor seizure. Briefly: Mouse 6 Hz model. The format is in vivo. The conditions noted are these: mice, ip, 0.5 hour, 32 mA. Here is the method:
Male, Sprague-Dawley rats and CD-1 mice were used for all studies. All animals were allowed ad-lib access to food and water except during experiment. Animals were housed within an animal vivarium maintained under a 12 h light:dark cycle (lights on: 07:00 h), and all experiments were conducted in the animals light phase. For all experiments, animals were habituated to the vivarium for a minimum of 72 h before experimentation. The experimental procedures used in the present investigation were conducted under the Association for Assessment and Accreditation of Laboratory Animal Care (AAALAC) and the Canadian Council on Animal Care (CCAC) guidelines. All compounds were sonicated in 5% Tween 80® in saline or methylcellulose 0.5% (wgt/vol), using MC and sterile water and injected in a dose volume of 5 ml/kg or 10 ml/kg (rat), and 10 ml/kg (mouse). Drugs were administered by either the oral, intraperitoneal or intravenous route. […] Preliminary experiments established that these stimulus parameters elicited a psychomotor seizure, defined as the expression of at least one of the following behaviors: stun/immobility, forelimb clonus, straub tail, vibrissae tremor, lateral head movement in >95% of control animals. Protection was defined as complete absence of all the above behaviors within 20 s of stimulus delivery. The effective dose of compound necessary to protect against psychomotor seizures to 50% of controls (i.e. ED50) was determined by curve fitting program (Prism v.4.02).

Turning to `C[C@@H](Oc1cc(Cl)cc(C(F)(F)F)c1)C(N)=O` [I(D), (2R)-2-[3-chloro-5-(trifluoromethyl)-phenoxy]propanamide], the values for the 50% effective dose (ED50) (in series [1]; in the series with 6 Hz psychomotor seizure) were 22.7 mg/kg and 48.5 ± 1 mg/kg, respectively. Further, in the series with gross motor function, the ED50 at 0.5 hour is over 170 mg/kg. Further, the “Average Seizure” value is on record as 4.9 in series [2] (20 mg/kg), 2.5 in series [2] (40 mg/kg) and 1 in series [2] (80 mg/kg). The results for the “N/F, number of animals active over the number tested” value in series [2] (20 mg/kg), in series [2] (40 mg/kg) and in series [2] (80 mg/kg) were 1/8, 1/8 and 5/8, respectively. In series [2], the “suppression of fully kindled (stage 5) seizures compared to vehicle controls” value is listed as “dose related suppression”. In addition, in series [2] (hippocampal kindled rat, Example 8), the “EC50, reduction of seizure score (seizure severity)” value was 49.4 ± 1.47 mg/kg.
Take `NC(=O)COc1cc(C(F)(F)F)cc(C(F)(F)F)c1` [I(F), 2-[3,5 bis(trifluoromethyl)-phenoxy]acetamide;]: the values for the ED50 (in series [1]; in the series with 6 Hz psychomotor seizure) were 18.4 mg/kg and 38.5 ± 1 mg/kg, respectively. Also, in the series on gross motor function, the ED50 at 0.5 hour is over 130 mg/kg. The “suppression of fully kindled (stage 5) seizures compared to vehicle controls” value in series [2] is given as “dose related suppression”.

For orientation: ED50 means the dose at which the effect has come halfway, by size or by number of responders. A higher ED50 goes with weaker potency.
